In PubChem BioAssay AID624344 (Sanford-Burnham Center for Chemical Genomics, 2012):
Calls of active or inactive are those of the source. The rule behind the calls is not given here.

Key:
Cytotoxicity = test: NFkB reporter suppression in cystic fibrosis bronchial cells – cell-based, uHTS hits, panel, cytotoxicity readout, dose response (AID 624344); details: CF bronchial epithelial cells, mean of runs
[1] = as above; details: CF bronchial epithelial cells, PAF-induced NFkB reporter inhibition; with PAF, mean of runs

SMILES	IC50 (Cytotoxicity)	IC50 [1]
N#Cc1ccsc1NC(=O)c1ccc(Cl)c([N+](=O)[O-])c1	18.4 µM	4.95 µM
COc1ccc(-c2cc(=O)oc3c(C)c(OC(=O)c4cccs4)ccc23)cc1	> 79 µM (inactive)	1.6 µM
CC(C)(C)c1nc(NC(=O)Nc2ccccc2)sc1Br	12.6 µM	6.59 µM
CCc1c(C)nc2ccc(Br)cc2c1SCCC#N	24.8 µM	3.12 µM
O=C(NCc1ccccc1)C1=C[C@H](c2csc3ccccc23)C[C@H](OCc2ccc(CO)cc2)O1	12.8 µM	inactive
O=C(COC(=O)c1c2c(nc3ccccc13)CCN(Cc1ccccc1)C2)Nc1c(F)cccc1F	2.64 µM	3.28 µM
CC(=O)Oc1ccc(N(C(C)=O)S(=O)(=O)c2cccs2)c2ccccc12	11.7 µM	6.45 µM
CCCN(CCC)c1ncnc2nc[nH]c12	57.3 µM (inactive)	1.32 µM
COc1ccc(CN(C)C(=O)c2cc(-c3ccc(C)cc3C)nc3ccccc23)c(OC)c1OC	7.07 µM	6.52 µM
CCN(CC(=O)Nc1ccc(OC)cc1)C(=O)c1cc(-c2cccs2)nn1-c1ccccc1	7.56 µM	5.29 µM
C=C1C(=O)C23C(O)C1CCC2C12COC3(O)C(O)C1C(C)(C)CCC2O (centres undefined)	5.5 µM	3.69 µM
NC(=O)c1sc2nc3c(c(-c4ccccc4)c2c1N)CCC3	60.1 µM (inactive)	1.17 µM
Brc1ccc2ncnc(NCc3cccnc3)c2c1	66.2 µM (inactive)	2.25 µM
Cc1ccsc1CN(C)c1ncnc2ccc(-c3ccoc3)cc12	47 µM	0.376 µM
COc1ccc(-c2nc(N3CCOCC3)nc3n[nH]c(N)c23)cc1	9.47 µM	6.92 µM
COc1ccc(-c2nc(NC(=O)c3ccc(OCC(=O)Nc4ccc(F)cc4)c(OC)c3)sc2C)cc1	16.6 µM	4.72 µM
O=C1C(=Cc2ccccc2[N+](=O)[O-])Cc2ccccc21	8.65 µM	6.36 µM
CCCc1nc(Cl)c(C#N)c2c1CCCC2	73 µM (inactive)	4.3 µM
O=C(Nc1cccc(S(=O)(=O)N2CCCCC2)c1)Nc1ccc(Cl)cc1Cl	10.6 µM	8.83 µM
COc1cc2cncc(Cc3ccc(Cl)cc3)c2cc1OC	20.9 µM	2.87 µM
CCC(=NCCc1c(C)[nH]c2ccc(C)cc12)C1=C(O)CC(c2ccccc2)CC1=O (centres undefined)	> 79 µM (inactive)	7.89 µM

SMILES	IC50 (Cytotoxicity)	IC50 [1]
CCC1(O)CC2CN(CCc3c([nH]c4ccccc34)C(C(=O)OC)(c3cc4c(cc3OC)N(C=O)C3C(O)(C(=O)OC)C(OC(C)=O)C5(CC)C=CCN6CCC43C65)C2)C1 (centres undefined)	63.1 µM (inactive)	3.67 µM
CC(=O)c1c(C)n(-c2ccc(C)cc2C)c2ccc(O)cc12	> 79 µM (inactive)	12.7 µM
O=C(c1ccc(O)c(Br)c1)c1cc(Br)ccc1O	16.4 µM	4.08 µM
Cc1ccc(-c2c(C#N)c(N)n3c(nc4ccccc43)c2C#N)cc1	5.34 µM	2.89 µM
NC(=O)c1cc2ccc(O)cc2oc1=Nc1ccccc1	44.8 µM	1.41 µM
C=C1C(=O)OC2CC3(C)OC3CCC(C)=CC(OC(C)=O)C12 (centres undefined)	2.35 µM	2.27 µM
COc1ccc(C(C(=O)NCC2CCCO2)N(Cc2cccs2)C(=O)c2snc(C(N)=O)c2N)cc1 (centres undefined)	44.2 µM	3.11 µM
Cc1ccc(S(=O)(=O)CC(CN2CCCCC2)N2CCCCC2)cc1 (centres undefined)	33.3 µM	6.85 µM
CCc1nccn1C(=O)c1cnn2c(C(F)F)cc(-c3ccc(C)cc3)nc12	6.64 µM	3.86 µM
O=C1OC(c2ccccc2)(c2cc(Br)ccc2O)c2ccccc21 (centres undefined)	42.4 µM	6.65 µM
CCOC(=O)c1ccc(-n2[nH]c(-c3ccccc3)cc2=O)cc1	3.77 µM	5.35 µM
CCN1CCN(Cc2ccc(NC(=O)c3ccc(C)c(NC(=O)c4cc(-c5ccc(Br)cc5)n[nH]4)c3)cc2C(F)(F)F)CC1	42.5 µM	2.77 µM
O=C(CSc1nc(C2CC2)nc2ccccc12)Nc1cccc(O)c1	42.8 µM	2.58 µM
O=S(=O)(Nc1nc2ccccc2nc1N1CCN(c2ccccc2F)CC1)c1ccc(Cl)cc1	10.5 µM	5.66 µM
c1cc2[nH]snc2c2nc(C3CC3)nc12	13.3 µM	3.06 µM
O=S(=O)(CC(CN1CCCC1)N1CCCC1)c1ccc2ccccc2c1 (centres undefined)	2.35 µM	1.46 µM
Cc1nc2sc(C(N)=O)c(N)c2c2c1CCCC2	64 µM (inactive)	1.18 µM
O=C(Oc1ccc(F)cc1C(=O)/C=C/c1cccs1)c1cccc([N+](=O)[O-])c1	> 79 µM (inactive)	inactive
Cc1c(NC(=O)c2cc(-c3cccs3)nc3ccccc23)c(=O)n(-c2ccccc2)n1C	8.78 µM	4.08 µM
O=C1NCCc2c1[nH]c1c(Cl)ccc(Cl)c21	11 µM	1.54 µM
Cc1ccc(CNc2ncnc3ccc(-c4ccoc4C)cc23)o1	14.8 µM	0.381 µM
